Assay results taken from patent US10683269B2 (MISSION THERAPEUTICS LIMITED, priority 2016, dated 2020).

The molecules below were run against T1, USP7 (Homo sapiens, UniProt Q93009) (assay: USP7 biochemical IC50 assay (fluorescence polarisation, TAMRA labelled peptide linked to ubiquitin via an iso-peptide bond)). Settings: 30 min pre-incubation of enzyme and compound, read after 2 hr incubation at room temperature, read-out: IC50 range.
T1 construct: The USP7 construct was PCR amplified and cloned into a pFLAG-CMV-6a vector (Sigma-Aldrich) with an N-terminal FLAG tag; made in house; host or cells: HEK293T
Protocol: In Vitro USP7 Inhibition Assay
Expression and Purification of USP7
The USP7 construct was PCR amplified and cloned into a pFLAG-CMV-6a vector (Sigma-Aldrich) with an N-terminal FLAG tag. HEK293T cells were transfected with FLAG-USP7 using TransIT-LT1 transfection reagent (Mirus) according to the manufacturer's instructions. Cells were harvested 40 hours after transfection. […] The resin was washed two times with low salt buffer plus protease inhibitors (complete mini, Roche) and phosphatase inhibitors (PhosSTOP mini, Roche) and one time with high salt buffer (20 mM Tris, pH 7.5, 500 mM NaCl, 0.5 mM EDTA, 5 mM beta-mercaptoethanol, protease inhibitors (complete mini, Roche) and phosphatase inhibitors (PhosSTOP mini, Roche). To elute the bound USP7, elution buffer (10 mM Tris, pH 7.5, 150 mM NaCl, 0.5 mM EDTA, 10% glycerol, 0.5% NP40, 5 mM beta-mercaptoethanol, 0.15 mg/ml 3×FLAG peptide (Sigma-Aldrich)) was added to the resin and incubated at 4° C. for 2.5 hours rotating. The resin was centrifuged at 4000 rpm for 30 seconds, and the supernatant containing purified FLAG-USP7 was removed and stored at −80° C.
USP7 Biochemical IC50 Assay
A typical 8-point dilution series would be 100, 30, 10, 3, 1, 0.3, 0.1, 0.03 μM final. […] Either 1 μl of 50% DMSO or diluted compound was added to the plate. USP7 was diluted in reaction buffer (20 mM Tris, pH 7.5, 100 mM NaCl, 0.05% Tween 20, 0.5 mg/ml BSA, 5 mM—beta mercaptoethanol) to the equivalent of 0.0025 μl/well and 10 μl of diluted USP7 was added to the compound. Enzyme and compound were incubated for 30 min at room temp. Reactions were initiated by the addition of 50 nM of TAMRA labelled peptide linked to ubiquitin via an iso-peptide bond as fluorescence polarisation substrate. Reactions were read immediately after addition of substrate and following a 2 hr incubation at room temperature. Readings were performed on a Pherastar Plus (BMG Labtech). λ Excitation 540 nm; λ Emission 590 nm.

T1 sequence (Q93009 whole entry): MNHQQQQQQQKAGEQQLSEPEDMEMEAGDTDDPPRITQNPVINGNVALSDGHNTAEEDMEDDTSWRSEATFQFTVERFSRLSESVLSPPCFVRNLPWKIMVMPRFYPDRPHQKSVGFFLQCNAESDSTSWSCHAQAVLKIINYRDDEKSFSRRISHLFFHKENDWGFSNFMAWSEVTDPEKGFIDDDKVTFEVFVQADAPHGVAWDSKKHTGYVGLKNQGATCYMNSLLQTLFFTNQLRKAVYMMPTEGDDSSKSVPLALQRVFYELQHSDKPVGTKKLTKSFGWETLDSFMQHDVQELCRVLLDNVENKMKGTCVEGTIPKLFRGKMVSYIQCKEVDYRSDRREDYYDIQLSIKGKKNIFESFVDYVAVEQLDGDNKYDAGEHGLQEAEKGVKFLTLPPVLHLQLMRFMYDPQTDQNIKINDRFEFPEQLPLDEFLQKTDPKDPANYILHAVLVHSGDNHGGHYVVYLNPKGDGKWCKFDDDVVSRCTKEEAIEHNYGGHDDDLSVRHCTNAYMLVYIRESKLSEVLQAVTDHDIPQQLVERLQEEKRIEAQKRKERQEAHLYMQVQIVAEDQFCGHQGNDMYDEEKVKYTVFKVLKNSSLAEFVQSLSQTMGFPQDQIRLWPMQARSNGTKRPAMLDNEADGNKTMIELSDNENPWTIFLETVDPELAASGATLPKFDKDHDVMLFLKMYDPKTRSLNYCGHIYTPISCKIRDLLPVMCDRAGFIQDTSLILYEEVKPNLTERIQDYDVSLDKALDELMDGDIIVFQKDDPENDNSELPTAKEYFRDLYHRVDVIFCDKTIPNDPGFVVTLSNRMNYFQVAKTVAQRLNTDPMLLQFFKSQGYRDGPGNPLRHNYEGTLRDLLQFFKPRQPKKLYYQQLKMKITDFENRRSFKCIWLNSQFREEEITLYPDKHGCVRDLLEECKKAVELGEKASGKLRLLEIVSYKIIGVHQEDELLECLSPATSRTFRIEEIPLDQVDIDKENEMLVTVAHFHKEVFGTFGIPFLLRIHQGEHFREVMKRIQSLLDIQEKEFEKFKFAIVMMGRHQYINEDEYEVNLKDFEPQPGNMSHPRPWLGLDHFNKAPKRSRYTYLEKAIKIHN

IC50 | Structure (SMILES)
< 1000 nM | CN1CCCC(C(=O)Nc2cc3c(c(-c4ccccc4)c2)CN(C#N)C3)C1 (racemic) [Example 36, N-(2-cyano-7-phenylisoindolin-5-yl)-1-methylpiperidine-3-carboxamide]
1000 to 10000 nM | CN1CCOC(CNc2nc3c(c(-c4ccccc4)n2)CN(C#N)C3)C1 (single isomer, unassigned) [Example 152, 2-(((4-methylmorpholin-2-yl)methyl)amino)-4-phenyl-5,7-dihydro-6H-pyrrolo[3,4-d]pyrimidine-6-carbonitrile]
< 1000 nM | CN1CCOC(CNc2nc3c(c(-c4ccccc4)n2)CN(C#N)C3)C1 (single isomer, unassigned) [Example 153, 2-(((4-methylmorpholin-2-yl)methyl)amino)-4-phenyl-5,7-dihydro-6H-pyrrolo[3,4-d]pyrimidine-6-carbonitrile]
10000 to 30000 nM | CC1c2cccc(-c3ccc(Cl)cc3C(N)=O)c2CN1C#N (single isomer, unassigned) [Example 258, 5-chloro-2-(2-cyano-1-methylisoindolin-4-yl)benzamide]
1000 to 10000 nM | CC1c2cccc(-c3ccc(C#N)cc3C(N)=O)c2CN1C#N (single isomer, unassigned) [Example 259, 5-cyano-2-(2-cyano-1-methylisoindolin-4-yl)benzamide]
1000 to 10000 nM | N#Cc1ccc(-c2cccc3c2CN(C#N)C3)c(C(N)=O)c1 [Example 1, 5-cyano-2-(2-cyanoisoindolin-4-yl)benzamide]
1000 to 10000 nM | N#CN1Cc2cccc(-c3ccc(Cl)cc3C(N)=O)c2C1 [Example 2, 5-chloro-2-(2-cyanoisoindolin-4-yl)benzamide]
1000 to 10000 nM | Cc1ccc(-c2cccc3c2CN(C#N)C3)c(C(N)=O)c1 [Example 3, 2-(2-cyanoisoindolin-4-yl)-5-methylbenzamide]
1000 to 10000 nM | N#Cc1ccc(-c2cccc3c2CN(C#N)C3)c(C(=O)N2CCC2)c1 [Example 4, 4-(2-(azetidine-1-carbonyl)-4-cyanophenyl)isoindoline-2-carbonitrile]
< 1000 nM | Cn1cc(Nc2cc3c(c(-c4ccccc4)c2)CN(C#N)C3)cn1 [Example 5, 6-((1-methyl-1H-pyrazol-4-yl)amino)-4-phenylisoindoline-2-carbonitrile]
1000 to 10000 nM | N#CN1Cc2cccc(-c3ccccc3)c2C1 [Example 6, 4-phenylisoindoline-2-carbonitrile]
1000 to 10000 nM | Cn1cc(-c2cccc3c2CN(C#N)C3)cn1 [Example 7, 4-(1-methyl-1H-pyrazol-4-yl)isoindoline-2-carbonitrile]
1000 to 10000 nM | N#CN1Cc2cccc(-c3cnc4ccccc4c3)c2C1 [Example 8, 4-(quinolin-3-yl)isoindoline-2-carbonitrile]
1000 to 10000 nM | N#CN1Cc2cccc(-c3cnc4[nH]ccc4c3)c2C1 [Example 9, 4-(1H-pyrrolo[2,3-b]pyridin-5-yl)isoindoline-2-carbonitrile]
1000 to 10000 nM | Cn1cc2cc(-c3cccc4c3CN(C#N)C4)ccc2n1 [Example 11, 4-(2-methyl-2H-indazol-5-yl)isoindoline-2-carbonitrile]
1000 to 10000 nM | Cc1ccccc1-c1cccc2c1CN(C#N)C2 [Example 12, 4-(o-tolyl)isoindoline-2-carbonitrile]
1000 to 10000 nM | N#Cc1ccc(-c2cccc3c2CN(C#N)C3)cc1 [Example 13, 4-(4-cyanophenyl)isoindoline-2-carbonitrile]
30000 to 100000 nM | CN1CCC(c2cccc3c2CN(C#N)C3)CC1 [Example 14, 4-(1-methylpiperidin-4-yl)isoindoline-2-carbonitrile]

IC50 | Structure (SMILES)
10000 to 30000 nM | N#CN1Cc2nccc(-c3cccc(C(=O)NCc4ccccc4)c3)c2C1 [Example 15, N-benzyl-3-(6-cyano-6,7-dihydro-5H-pyrrolo[3,4-b]pyridin-4-yl)benzamide]
1000 to 10000 nM | Cc1nc(-c2cc3c(c(-c4ccccc4)c2)CN(C#N)C3)no1 [Example 20, 6-(5-methyl-1,2,4-oxadiazol-3-yl)-4-phenylisoindoline-2-carbonitrile]
1000 to 10000 nM | N#CN1Cc2cccc(Nc3ncc4ccccc4n3)c2C1 [Example 21, 4-(quinazolin-2-ylamino)isoindoline-2-carbonitrile]
1000 to 10000 nM | CNC(=O)c1ccc2cnc(Nc3cccc4c3CN(C#N)C4)cc2c1 [Example 22]
30000 to 100000 nM | N#CN1Cc2cc(NC(=O)c3cccnc3)cc(-c3ccccc3)c2C1 [Example 23, N-(2-cyano-7-phenylisoindolin-5-yl)nicotinamide]
1000 to 10000 nM | CC(=O)Nc1cc2c(c(-c3ccccc3C(N)=O)c1)CN(C#N)C2 [Example 24, 2-(6-acetamido-2-cyanoisoindolin-4-yl)benzamide]
< 1000 nM | CN1CCC[C@@H](C(=O)Nc2cc3c(c(-c4cccc(F)c4)c2)CN(C#N)C3)C1 [Example 25, (R)-N-(2-cyano-7-(3-fluorophenyl)isoindolin-5-yl)-1-methylpiperidine-3-carboxamide]
< 1000 nM | CN1CCC[C@@H](C(=O)Nc2cc3c(c(-c4ccc(C#N)cc4)c2)CN(C#N)C3)C1 [Example 26, (R)-N-(2-cyano-7-(4-cyanophenyl)isoindolin-5-yl)-1-methylpiperidine-3-carboxamide]
< 1000 nM | CN1CCC[C@@H](C(=O)Nc2cc3c(c(-c4cccc(C#N)c4)c2)CN(C#N)C3)C1 [Example 27, (R)-N-(2-cyano-7-(3-cyanophenyl)isoindolin-5-yl)-1-methylpiperidine-3-carboxamide]
< 1000 nM | CN1CCC[C@@H](C(=O)Nc2cc3c(c(-c4ccc(F)cc4)c2)CN(C#N)C3)C1 [Example 28, (R)-N-(2-cyano-7-(4-fluorophenyl)isoindolin-5-yl)-1-methylpiperidine-3-carboxamide]
< 1000 nM | CNC(=O)c1ccc(-c2cc(NC(=O)[C@@H]3CCCN(C)C3)cc3c2CN(C#N)C3)cc1 [Example 29, (R)-N-(2-cyano-7-(4-(methylcarbamoyl)phenyl)isoindolin-5-yl)-1-methylpiperidine-3-carboxamide]
1000 to 10000 nM | CNC(=O)c1cccc(-c2cc(NC(=O)[C@@H]3CCCN(C)C3)cc3c2CN(C#N)C3)c1 [Example 30]
1000 to 10000 nM | COc1cccc(-c2cc(NC(=O)[C@@H]3CCCN(C)C3)cc3c2CN(C#N)C3)c1 [Example 31, (R)-N-(2-cyano-7-(3-methoxyphenyl)isoindolin-5-yl)-1-methylpiperidine-3-carboxamide]
< 1000 nM | COc1ccc(-c2cc(NC(=O)[C@@H]3CCCN(C)C3)cc3c2CN(C#N)C3)cc1 [Example 32, (R)-N-(2-cyano-7-(4-methoxyphenyl)isoindolin-5-yl)-1-methylpiperidine-3-carboxamide]
< 1000 nM | CN1CCC[C@@H](C(=O)Nc2cc3c(c(-c4ccc(Cl)cc4)c2)CN(C#N)C3)C1 [Example 33, (R)-N-(7-(4-chlorophenyl)-2-cyanoisoindolin-5-yl)-1-methylpiperidine-3-carboxamide]
1000 to 10000 nM | CN1CCC[C@@H](C(=O)Nc2cc3c(c(-c4cccc(Cl)c4)c2)CN(C#N)C3)C1 [Example 34, (R)-N-(7-(3-chlorophenyl)-2-cyanoisoindolin-5-yl)-1-methylpiperidine-3-carboxamide]
< 1000 nM | Cc1nc2ccc(-c3cc(NC(=O)[C@@H]4CCCN(C)C4)cc4c3CN(C#N)C4)cc2o1 [Example 35, (R)-N-(2-cyano-7-(2-methylbenzo[d]oxazol-6-yl)isoindolin-5-yl)-1-methylpiperidine-3-carboxamide]
< 1000 nM | CN1CCC[C@H](C(=O)Nc2cc3c(c(-c4ccccc4)c2)CN(C#N)C3)C1 [Example 37, (S)—N-(2-cyano-7-phenylisoindolin-5-yl)-1-methylpiperidine-3-carboxamide]

Structure (SMILES) | IC50
CN1CC=C(c2cccc3c2CN(C#N)C3)CC1 [Example 10, 4-(1-methyl-1,2,3,6-tetrahydropyridin-4-yl)isoindoline-2-carbonitrile] | 1000 to 10000 nM
N#CN1Cc2nccc(-c3ccc(Cl)cc3)c2C1 [Example 16, 4-(4-chlorophenyl)-5,7-dihydro-6H-pyrrolo[3,4-b]pyridine-6-carbonitrile] | 1000 to 10000 nM
COc1ccc(-c2ccnc3c2CN(C#N)C3)cc1 [Example 17, 4-(4-methoxyphenyl)-5,7-dihydro-6H-pyrrolo[3,4-b]pyridine-6-carbonitrile] | 1000 to 10000 nM
N#CN1Cc2nccc(-c3cccc(Cl)c3)c2C1 [Example 18, 4-(3-chlorophenyl)-5,7-dihydro-6H-pyrrolo[3,4-b]pyridine-6-carbonitrile] | 1000 to 10000 nM
N#CN1Cc2ccnc(-c3ccccc3)c2C1 [Example 19, 4-phenyl-1,3-dihydro-2H-pyrrolo[3,4-c]pyridine-2-carbonitrile] | 1000 to 10000 nM
